Laboratory results: patent publication US20090239884A1, “Methods of Treating Inflammation” (priority 2006, published 2009)

How the values were obtained:
CD4+CD25− T cells [1] = assay: qRT-PCR of PDE and cytokine genes in anti-CD3 activated CD4+CD25− T cells; format: cell-based, mouse; conditions: for changes in PDE gene expression: 20 minutes; for changes in PDE gene expression / increase of PDE4B gene expression: IBMX 300 μM; for PDE3B, 7A, and 8A expression: after DP and IBMX treatment
Description: Cell Culture. Mouse splenocytes were prepared and cultured as described. (Dong H, Osmanova V, Epstein P M, Brocke S. Phosphodiesterase 8 (PDE8) regulates chemotaxis of activated lymphocytes. Biochem Biophys Res Commun. 2006; 345:713-719) […] were separated from CD4^+CD25^+ Treg cells using a CD4^+CD25^+ Regulatory T Cell Isolation Kit (Miltenyi Biotec, Auburn, Calif.) and activated for 18 hours on plate-bound anti-CD3 mAb (5 μg/ml). Cells of the murine brain endothelium-derived cell line bEnd.3 (ATCC, Manassas, Va.) were seeded into 24-well plates (Costar, Cambridge, Mass.) in DMEM supplemented with 100 U/ml penicillin, […] streptomycin, 2 mM LGlutamine, and 10% fetal bovine serum (all Gibco, Carlsbad, Calif.). bEnd.3 assays were performed on confluent bEnd.3 monolayers.
Quantitative real-time RT-PCR analysis. 10 ng cDNA, or 2 μl cDNA for LCM studies, was amplified by qRT-PCR in a 25 μl reaction using SYBR Green PCR Master Mix (Applied Biosystems, Foster City, Calif.). Primers were designed using Primer Express software v3.0 and primer efficiency verified by slope analysis to be 100%±2.5%. qRT-PCR was performed using an ABI 7500 fast system and data analyzed using the Δ^ct method (SDS software v3.0). Amplicon sizes were approximately 100 bp.
Cell treatment. Confluent bEnd.3 monolayers were incubated with 200 ng/ml TNF-α (Peprotech, Rocky Hill, N.J.) at 37° c. for 2 hours. […] The selective PDE3 and PDE4 inhibitors motapizone and piclamilast were supplied by Drs. Christoff Zitt and Armin Hatzelmann (Altana Pharma, Konstanz, Germany). Con A-activated splenocytes or CD4^+CD25^− T cells activated with plate-bound anti-CD3 mAb were treated with the same reagents for 20, 45, or 90 minutes.
In FIGS. 21A-21B, purified CD4^+CD25^− T cells were activated with plate-bound anti-CD3 mAb for 18 hours followed by incubation with IBMX (300 μM), DP (100 μM) or vehicle (0.1% DMSO) for (A) 20 or (B) 90 minutes. PDE (A, Bi) and cytokine (Bii) gene expression was then analyzed by qRT-PCR with the data presented as the mean+SEM of triplicate determinations. The results are representative of 2 independent experiments (*p<0.05, **p<0.001; one way ANOVA followed by Bonferroni t-test).

CD4+CD25− T cells [2] = assay: cAMP levels in CD4+CD25− T cells; format: cell-based, mouse; conditions: 20 minutes of treatment; resolved by 90 minutes
PDE8A1 catalytic domain = PDE8A1 catalytic domain (Homo sapiens, UniProt O60658); conditions: wild type; cited from earlier work
PDE8A1 catalytic domain, sequence (O60658 480-820 limits assumed): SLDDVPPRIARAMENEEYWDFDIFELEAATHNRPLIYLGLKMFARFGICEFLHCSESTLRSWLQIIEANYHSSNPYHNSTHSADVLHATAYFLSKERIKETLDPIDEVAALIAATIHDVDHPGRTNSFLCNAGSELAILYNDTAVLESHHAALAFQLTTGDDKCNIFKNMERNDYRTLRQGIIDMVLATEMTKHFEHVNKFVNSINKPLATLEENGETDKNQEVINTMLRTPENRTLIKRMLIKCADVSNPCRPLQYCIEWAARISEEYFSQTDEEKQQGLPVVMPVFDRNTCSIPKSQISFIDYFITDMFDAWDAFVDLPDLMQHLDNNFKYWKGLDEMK

[3] = target: Y748F mutant of PDE8A catalytic domain (Homo sapiens, UniProt O60658, Y748F); conditions: cited from earlier work
Y748F mutant of PDE8A catalytic domain, sequence (O60658 480-820 Y748F limits assumed): as the sequence (O60658 480-820 limits assumed) above, with Y269F counted along it

[4] = system: Con A-stimulated mouse splenocytes; assay: transwell chemotaxis assay in response to CXCL12, Con A-stimulated splenocytes; format: cell-based; conditions: Mus musculus, Splenocyte, 4 h; read-out: inhibition of CXCL12-induced migration
Description: Isolation of murine splenocytes. Splenocytes were isolated from 6-8 week old C57BL/6 mice obtained from Jackson Laboratories (Bar Harbor, Me.). Spleens were removed and a single-cell suspension prepared using 40 μm cell strainers (Fisher Scientific). Cells were washed with RPMI 1640 medium supplemented with 5% fetal bovine serum, 2 mM L-glutamine, 100 U/ml penicillin and […] (all from GIBCO). Red blood cells were lysed using standard lysis buffer (0.15M NH4Cl, 10mM KHCO3, 0.1 mM EDTA PH 7.4). Cells were then washed and used in chemotaxis assays either as unstimulated cells or after stimulation with Con A ([…]) as indicated.
Preparation of Test Reagents. […] This concentration of DMSO had no effect on migration of splenocytes in the presence or absence of CXCL12. CXCL12 was prepared as a 100 μg/ml stock solution in PBS+0.1% BSA, Con A was prepared as a stock of 2.5 mg/ml in PBS, and dibutyryl cAMP and Rp-cAMPS were prepared as 50 mM stock solutions in water, and these reagents were diluted directly into the chemotaxis assays.
Chemotaxis Assay. Chemotaxis assays were done in 24-well transwell plates with a pore size of 5 μm (Costar, Corning). Splenocytes were placed in medium at a concentration of 3×10^6 cells/ml. Where test agents were used, splenocytes were pretreated with the agent or vehicle for 45 to 60 min, following which 100 μl of the splenocyte suspension was placed into the upper chamber of transwell plates, and the lower chamber was filled with 600 μl of medium. When added to induce migration, CXCL12 (250 ng/ml) was added to the lower chamber only. Other test reagents were added as indicated to both the upper and lower chambers. After 4 hours of incubation at 37° C. in 5% CO2, transwell inserts were gently removed and the number of cells that migrated into the lower chamber were counted by withdrawing 500 μl of lower chamber medium, mixing it with 10 ml of buffer and counting the cells on a Coulter Counter (Beckman Coulter Z series). Where results are expressed as % of CXCL12-stimulated migration, this was calculated as follows: (cells migrated in presence of CXCL12 and test reagent—cells migrated in medium alone)/(cells migrated in presence of CXCL12-cells migrated in medium alone)×100. Experimental points for all chemotaxis assays were performed in triplicate.
Splenocytes isolated from mice were assayed for migration in response to CXCL12 (250 ng/ml), either directly (unstimulated) or following 48 hr of incubation with 3 μg/ml Con A (stimulated), as described in Methods. To test for effects of dibutyryl cAMP, cells were pretreated with dibutyryl cAMP (500 μM) for 45-60 min prior to beginning the chemotaxis assay, and the assays were conducted with dibutyryl cAMP (db-cAMP) present (500 μM) in both the upper and lower chambers of the transwell plates. Data plotted are derived from a single experiment performed in triplicate. *p<0.001; **p<0.02.

Row | Compound | changes in PDE gene expression (CD4+CD25− T cells [1]; DP 100 μM) | increase of PDE4B gene expression (CD4+CD25− T cells [1]; 90 minutes, DP 100 μM) [fold] | PDE3B, 7A, and 8A expression (CD4+CD25− T cells [1]) | cAMP in CD4+CD25− T cells (CD4+CD25− T cells [2]) | sensitivity of PDE8A1 catalytic domain to inhibition (PDE8A1 catalytic domain) | sensitivity of Tyr748-to-phenylalanine mutant to inhibition [3] | inhibition at 300 µM [4] [%] | decrease of IL-2 gene expression (CD4+CD25− T cells [1]; 90 minutes, DP 100 μM) [fold] | decrease of TNF-α gene expression (CD4+CD25− T cells [1]; 90 minutes, DP 100 μM) [fold] | IC50 (PDE8A1 catalytic domain) [µM] | IC50 [3] [µM] | inhibition at 100 µM [4] [%]
1 | CC(C)Cn1c(=O)n(C)c(=O)c2[nH]cnc21 [IBMX, 3-isobutyl-1-methylxanthine] | No significant changes | 5 | unchanged | increase | insensitive | restores sensitivity | 21 | – | – | – | – | –
2 | OCCN(CCO)c1nc(N2CCCCC2)c2nc(N(CCO)CCO)nc(N3CCCCC3)c2n1 [Dipyridamole, 2,2′,2″,2′″-(4,8-di(piperidin-1-yl)pyrimido[5,4-d]pyrimidine-2,6-diyl)bis(azanetriyl)tetraethanol] | No significant changes | 8 | unchanged | increase | – | – | – | 2 | 3 | ~6 | ~4.1 | 54
